# Laboratory results reported in patent publication US12661362B2, “Methods for the prevention and treatment of hearing loss” (Ting Therapeutics LLC, priority 2020, dated 2026).
# Assays:
# HEI-OC1 cells = test: Caspase-Glo 3/7 assay in HEI-OC1 cells treated with Cisplatin; format: cell-based, mouse
# Experimental: Now referring to FIG. 3A, and FIGS. 3D-3E, compounds protect from cisplatin toxicity in the mouse inner ear cell line. House Ear Institute-Organ of Corti 1 (HEI-OC1) cells (House Research Institute) were maintained in high-glucose Dulbecco's modified Eagle medium supplemented with 10% fetal bovine serum (Life Technologies, USA) at 33° C. and 10% CO2 as previously described (Kalinec et al., 2003). Cells were seeded at 8,000 cells/well in 96 well plates and left to attach overnight. Now referring to FIG. 3A, For the drug screening, HEI-OC1 cells were pretreated with 30 drug candidates at concentrations ranging from 2 nM to 40 μM one hour before receiving cisplatin. The cisplatin dose (50 μM) was based on our previously published dose response curve. The cells were co-incubated with cisplatin and drug candidates for an additional 19 hours prior to Caspase-Glo 3/7 assay (Promega, Madison, WI) as previously shown. Additionally, […] kenpaullone-treated cells were used as positive controls to validate our results. The DMSO concentration in drug preparation was adjusted to 0.1% v/v and it was verified that 0.5% DMSO had no effect on the cell death kinetics (Hall et al., 2014). Results of the assay were run in triplicate and normalized to cisplatin-only and media-only controls. The percent caspase activity was used to determine the relative protective effect of each compound. The luminescence detection representing caspase activity in each well was obtained using a Cytation Hybrid Multi-Mode Reader (Biotek, Winooski, VT, USA). The percent protection of the cells was calculated using caspase 3/7 readouts and the following formula: […]
# In the following examples, Niclosamide, 5-chloro-N-(2-chloro-4-nitrophenyl)-2-hydroxy-benzamide, with a ≥95% purity was used for all experiments (Cayman Chemical, USA).
# zebrafish neuromast HCs = test: Niclosamide/ezetimibe combination hair cell protection in Cisplatin-treated zebrafish (Loewe synergy); format: in vivo; conditions: concentrations above 2 nM, cisplatin 300 μM
# Experimental: Now referring to FIGS. 6A-6B, 5 dpf zebrafish were either incubated with vehicle (DMSO), cisplatin alone at 300 μM concentration, cisplatin and ezetimibe (0.002 μM to 13.3 μM), cisplatin and niclosamide (0.02 nM to 18.3 nM), or cisplatin and combination ezetimibe/niclosamide. After 6 hours, animals were transferred to fresh water for 1 hour and then sacrificed and processed for immunohistochemistry and HC count as described above. To further elucidate whether Niclosamide, synergizes with Nrf2 activators to protect zebrafish HCs from Cisplatin damage, we tested the extent of HC damage in presence of Niclosamide and a Nrf2 activator, ezetimibe.
# A three-dimensional contour plot (A) showing dose response of neuromast hair cell protection in zebrafish treated with varying concentrations of niclosamide and ezetimibe mapped to synergy distribution. […] Other dose combinations showing synergy are shown in dark blue boxes. Dose combinations with scores of 0 and 1 show additive effect. *P<5×10−2; **P<10−3, ***P<10−4 versus control fish, One-sample t-test run by the Combenefit software44. Data is shown as mean±standard deviation.
# Zebrafish were treated with combinations of Niclosamide (ranging from 0.02-18.3 nM) and EZ (ranging from 0.0183-13.3 μM).
# ggcsh = test: Expression of nrf2 downstream gene ggcsh in zebrafish; format: in vivo; conditions: 0.002-1.48 μM, 6 hours
# Experimental: Additionally to FIGS. 6A-6B, but not shown, 5 dpf zebrafish were incubated for 6 hours with vehicle, niclosamide (2 nM to 1.48 μM) and the nrf2 pathway activator […] (DEM) as a positive control, in order to evaluate the effect of niclosamide on ggcsh, a nrf2 downstream target. Ggcsh was previously validated as a Nrf2 downstream target in zebrafish. (Sheets, 2017). Following incubation, the total RNA was isolated from whole fish and processed to measure the induced expression of nrf2 downstream gene ggcsh. […] Additionally, Nrf2a morpholinos morphlinos were prepared, followed by incubation of the zebrafish morphants with cisplatin and/or niclosamide. Zebrafish eggs were injected with 4.5 ng of scrambled morpholino or nrf2a morpholino (5′-[…] SEQ NO: 1). At 3 dpf non-injected and morphant animals were exposed to vehicle, cisplatin (300 μM), cisplatin+niclosamide 18.3 nM or niclosamide alone for 6 hours. Following 1-hour recovery, animals were fixed and processed for immunohistochemistry. Nrf2a KD was confirmed by analyzing expression of Glutathione S-transferase P1 (gstp1), a downstream target, due to lack of proper antibody to detect Nrf2 protein in zebrafish.
smiles,measurement,setting,value
"O=C(Nc1ccc([N+](=O)[O-])cc1Cl)c1cc(Cl)ccc1O [Niclosamide, 5-chloro-N-(2-chloro-4-nitrophenyl)-2-hydroxy-benzamide]",share of the dosage range tested with some level of protection,HEI-OC1 cells; 2 nM to 40 μM tested,over 80%
same,protection against Cisplatin damage compared to kenpaullone,HEI-OC1 cells; HEI-OC1 cells,comparable levels of protection to kenpaullone
same,"protection compared to sodium thiosulfate, ebselen, dexamethasone, N-acetylcysteine",HEI-OC1 cells; HEI-OC1 cells,better protection than four other benchmark compounds
same,caspase activity,"HEI-OC1 cells; at a dosage of ~4.4 μM, Cisplatin 50 μM",0%
same,caspase-3/7 activity relative to control cells,"HEI-OC1 cells; dose of 4.4 μM, Cisplatin 50 μM",reduce caspase activity to comparable levels as control cells
same,"HC per neuromast counts, compound alone",zebrafish neuromast HCs,higher counts
same,expression of ggcsh,ggcsh,significantly lowered
